# Experimental data from patent publication US20250034168A1, “NITROGEN-CONTAINING HETEROCYCLIC DERIVATIVE PARP INHIBITOR AND USE THEREOF” (XIZANG HAISCO PHARMACEUTICAL CO., LTD., priority 2021, published 2025).
# pIC50: −log10 of the molar value.
# Legend:
# PARP7 = PARP7 (Homo sapiens (Human), UniProt Q7Z3E1); experiment: PARP7 enzyme activity test; type: biochemical
# Method: (§1) PARP2 and PARP7 chemical […] detection kits were both purchased from BPS Bioscience. The histone solution in the kit was diluted 5× with 1×PBS, and 25 μL of the diluted histone solution was added to a microwell plate and incubated overnight at 4° C. After the incubation, the plate was washed three times with PBST (0.05% Tween-20). 100 μL of the blocking solution was added to the microwell plate and incubated at 25° C. for 90 minutes. After the incubation, the plate was washed three times with PBST. 2.5 μL of compound 4 diluted in test buffer and 5 μL of substrate mixed solution were added to the microwell plate. 5 μL of the diluted PARP enzyme was added to the microwell plate, and the reaction system was incubated at 25° C. for 60 minutes.
# (§2) After the incubation, the plate was washed three times with PBST. Streptavidin-HRP was diluted 50× with a blocking solution, and 25 μL of the diluent was added to the microwell plate and incubated at 25° C. for 30 minutes. After the incubation, the plate was washed three times with PBST. ELISA ECL substrate A and substrate B were mixed at a ratio of 1:1 (v/v), 25 μL of the mixture was added to the microwell plate, and the chemiluminescence value was read. […]
# PARP-1 enzyme = PARP-1 enzyme (Homo sapiens (Human), UniProt P09874); experiment: PARP-1 enzyme activity test; type: biochemical
# PARP-1 enzyme, sequence (P09874 whole entry): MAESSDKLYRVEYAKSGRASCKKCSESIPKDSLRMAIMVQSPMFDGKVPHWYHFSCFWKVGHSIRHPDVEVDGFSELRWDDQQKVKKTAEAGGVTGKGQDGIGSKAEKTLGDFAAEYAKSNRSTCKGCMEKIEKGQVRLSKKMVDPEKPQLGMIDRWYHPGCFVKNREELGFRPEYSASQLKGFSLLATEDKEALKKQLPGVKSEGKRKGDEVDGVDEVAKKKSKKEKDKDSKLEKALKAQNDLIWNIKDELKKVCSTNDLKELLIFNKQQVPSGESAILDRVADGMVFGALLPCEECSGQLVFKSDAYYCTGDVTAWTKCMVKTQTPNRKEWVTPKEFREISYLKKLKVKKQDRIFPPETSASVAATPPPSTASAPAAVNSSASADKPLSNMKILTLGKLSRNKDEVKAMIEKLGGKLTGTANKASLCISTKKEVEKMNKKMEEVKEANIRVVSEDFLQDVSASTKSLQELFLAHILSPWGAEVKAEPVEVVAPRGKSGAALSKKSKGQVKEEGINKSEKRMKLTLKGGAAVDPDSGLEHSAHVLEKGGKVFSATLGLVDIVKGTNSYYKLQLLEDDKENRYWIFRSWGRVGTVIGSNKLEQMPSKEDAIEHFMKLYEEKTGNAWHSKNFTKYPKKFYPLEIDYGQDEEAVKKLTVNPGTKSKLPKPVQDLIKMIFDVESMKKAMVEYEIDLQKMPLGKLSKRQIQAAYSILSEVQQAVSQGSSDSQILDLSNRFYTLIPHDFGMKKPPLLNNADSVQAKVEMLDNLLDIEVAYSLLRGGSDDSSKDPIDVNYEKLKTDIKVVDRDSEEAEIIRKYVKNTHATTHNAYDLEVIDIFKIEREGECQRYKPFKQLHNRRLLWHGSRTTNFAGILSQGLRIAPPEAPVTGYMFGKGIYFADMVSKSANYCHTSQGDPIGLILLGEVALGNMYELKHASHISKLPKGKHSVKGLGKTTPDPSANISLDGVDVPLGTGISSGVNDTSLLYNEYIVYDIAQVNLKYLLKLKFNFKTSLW
# Method: PARP-1 chemical […] detection kit was purchased from BPS Bioscience. The histone solution in the kit was diluted 5× with 1×PBS, and 25 μL of the diluted histone solution was added to a microwell plate and incubated overnight at 4° C. After the incubation, the plate was washed three times with PBST (0.05% Tween-20). 100 μL of the blocking solution was added to the microwell plate and incubated at 25° C. for 90 minutes. After the incubation, the plate was washed three times with PBST. 2.5 μL of compounds at different concentrations diluted in test buffer and 12.5 μL of substrate mixed solution (1.25 μL 10×PARP test buffer; 1.25 μL 10×PARP test mixed solution; 2.5 μL Activated DNA, 7.5 μL double-distilled water) were added to the microwell plate. The PARP-1 enzyme was diluted to 2 ng/μL, 10 μL of the diluent was added to the microwell plate, and the reaction system was incubated at 25° C. for 60 minutes.
# After the incubation, the plate was washed three times with PBST. Streptavidin-HRP was diluted 50× with a blocking solution, and 25 μL of the diluent was added to the microwell plate and incubated at 25° C. for 30 minutes. After the incubation, the plate was washed three times with PBST. ELISA ECL substrate A and substrate B were mixed at a ratio of 1:1 (v/v), 50 μL of the mixture was added to the microwell plate, and the chemiluminescence value was read.
# The inhibition rate was calculated according to formula 1, where RLUsample was the readout of the compound well, RLUmax was the readout of the solvent control well, and RLUmin was the readout of the control well without the PARP-1 enzyme. Curve fitting was performed by four parameters (log(inhibitor) vs. response—Variable slope) using GraphPad Prism software, and the IC50 value was calculated.
# PARP2 = PARP2 (Homo sapiens (Human), UniProt Q9UGN5); experiment: PARP2 enzyme activity test; type: biochemical
# PARP2, sequence (Q9UGN5 whole entry): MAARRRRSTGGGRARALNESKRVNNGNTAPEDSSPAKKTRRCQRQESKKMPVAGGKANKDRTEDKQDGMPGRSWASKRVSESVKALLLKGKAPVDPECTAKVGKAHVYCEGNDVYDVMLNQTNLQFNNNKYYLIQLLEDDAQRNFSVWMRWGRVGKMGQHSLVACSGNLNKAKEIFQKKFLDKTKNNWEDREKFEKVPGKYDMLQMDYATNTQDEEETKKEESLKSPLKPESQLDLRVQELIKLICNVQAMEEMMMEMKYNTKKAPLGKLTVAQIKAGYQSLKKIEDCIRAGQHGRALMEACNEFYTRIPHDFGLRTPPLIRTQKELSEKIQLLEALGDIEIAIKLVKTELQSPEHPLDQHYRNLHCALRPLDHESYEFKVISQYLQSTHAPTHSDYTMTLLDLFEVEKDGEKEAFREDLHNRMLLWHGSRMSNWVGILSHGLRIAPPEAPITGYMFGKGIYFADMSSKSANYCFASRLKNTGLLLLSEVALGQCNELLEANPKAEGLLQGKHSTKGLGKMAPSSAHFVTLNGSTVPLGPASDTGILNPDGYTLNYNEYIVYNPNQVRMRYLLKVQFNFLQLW
# Method: as §1, §2
# MDA-MB-231 cells = experiment: MDA-MB-231 cell proliferation inhibition test; type: cell-based; conditions: Homo sapiens
# Method: Human breast cancer MDA-MB-231 cells purchased from ATCC were placed in complete DMEM medium (supplemented with 10% fetal bovine serum and 1% double antibody) and cultured at 37° C. and 5% CO2. The cells in the exponential growth phase were collected, and the cell suspension was adjusted to 1500 cells/135 μL with the culture medium. 135 μL of the cell suspension was added to each well of a 96-well cell culture plate and incubated overnight. On day 2, compounds at different concentrations were added, and the plate was placed in the incubator and incubated for 7 days. After the incubation was completed, according to operation instructions for a CellTiter-Glo kit (Promega, Cat #G7573), 75 μL of CTG solution, which was already pre-melted and equilibrated to room temperature, was added to each well, and the mixture was uniformly mixed for 2 min using a microplate shaker. The plate was placed at room temperature for 10 min, and then […] signal values were measured using an Envision 2104 plate reader (PerkinElmer). The cell proliferation inhibition rate was calculated according to the formula [(1−(RLUcompound−RLUblank)/(RLUcontrol−RLUblank))×100%]. The IC50 value was obtained by four-parameter nonlinear fitting using GraphPad Prism software.
# [1] = tested on: MDA-MB-436 subcutaneous transplanted tumor; experiment: Mouse MDA-MB-436 subcutaneous in vivo transplanted tumor model; set-up: species or system BALB/c nude mice
# Method: Human breast cancer MDA-MB-436 cells were placed in Leibovitz's L-15 medium (supplemented with 10 μg/mL insulin, 16 μg/mL glutathione, 10% fetal bovine serum and 1% double antibody) and cultured at 37° C. Conventional digestion treatment with trypsin was carried out twice a week for passage. When the cell saturation was 80%-90%, and the number reached the requirement, the cells were collected, counted, and inoculated. BALB/c nude mice (from Beijing Vital River Laboratory Animal Technology Co., Ltd.) were subcutaneously inoculated with 0.2 mL (10×10^6) of MDA-MB-436 cells (plus matrigel, with the volume ratio of 1:1) on the right back. When the average tumor volume reached about 180 mm^3, grouping and administration were performed (marked as Day 0). The solvent group was given 5% DMSO, 30% PEG400 and 65% of 20% sulfobutyl-β-cyclodextrin solution, and the administration group was given compound 14 (Day 0-Day 10:1 mg/kg; Day 11-Day 28:0.1 mg/kg). The administration frequency was once a day, the administration cycle was 29 days, and the drug withdrawal observation period was set to 14 days. After grouping, the tumor diameter was measured twice a week with a vernier caliper. The formula for calculating the tumor volume was: V=0.5×a×b^2, where a and b represented the long and short diameters of the tumor, respectively. The tumor inhibitory effect of compound 14 was evaluated by TGI (%)=[(1−(average tumor volume at the end of administration in the treatment group−average tumor volume at the beginning of administration in the treatment group))/(average tumor volume at the end of treatment in the solvent control group−average tumor volume at the beginning of treatment in the solvent control group)]×100%. The tumor growth curve and the animal body weight change curve were as shown in FIG. 1 and FIG. 2, respectively.
# PARP7, sequence (Q7Z3E1 whole entry): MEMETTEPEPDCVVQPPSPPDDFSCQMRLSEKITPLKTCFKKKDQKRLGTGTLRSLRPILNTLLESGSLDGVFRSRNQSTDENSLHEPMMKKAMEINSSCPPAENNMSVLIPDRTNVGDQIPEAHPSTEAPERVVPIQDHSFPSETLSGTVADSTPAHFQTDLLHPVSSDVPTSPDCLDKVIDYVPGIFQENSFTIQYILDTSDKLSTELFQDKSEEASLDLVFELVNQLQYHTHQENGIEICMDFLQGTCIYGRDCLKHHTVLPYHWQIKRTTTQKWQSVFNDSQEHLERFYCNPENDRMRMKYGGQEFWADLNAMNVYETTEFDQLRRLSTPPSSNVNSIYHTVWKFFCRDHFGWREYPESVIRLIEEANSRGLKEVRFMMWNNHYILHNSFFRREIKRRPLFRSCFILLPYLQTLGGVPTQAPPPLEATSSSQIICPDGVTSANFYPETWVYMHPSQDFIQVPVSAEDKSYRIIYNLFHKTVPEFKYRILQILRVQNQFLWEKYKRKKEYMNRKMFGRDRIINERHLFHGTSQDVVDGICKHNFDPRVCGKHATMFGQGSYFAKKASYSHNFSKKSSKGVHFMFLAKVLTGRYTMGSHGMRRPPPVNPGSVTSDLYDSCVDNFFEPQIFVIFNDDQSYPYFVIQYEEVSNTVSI
structure (smiles),measurement,setting,value
"CCc1cc2ncc(CN3CC=C(c4ccc(C(=O)NC)nc4)CC3)cc2[nH]c1=O [Compound 14, 1′-((7-ethyl-6-oxo-5,6-dihydro-1,5-naphthyridin-3-yl)methyl)-N-methyl-1′,2′,3′,6′-tetrahydro-[3,4′-bipyridine]-6-carboxamide]",pIC50,PARP7,7.40
same,pIC50,PARP-1 enzyme,9.23
same,pIC50,PARP2,7.51
same,pIC50,"MDA-MB-231 cells; MDA-MB-231, 168 h, BRCA WT cells, 7 days incubation, CellTiter-Glo, read-out: MDA-MB-231 cell inhibitory activity IC50",4.66
same,inhibition at 10 µM,"MDA-MB-231 cells; MDA-MB-231 cells, 10 μM, read-out: Max inh. % 10 μM",59.2%
same,body weight of the animals,"[1]; Day 0-Day 10: 1 mg/kg, Day 11-Day 28: 0.1 mg/kg, once a day",no significant decrease
same,TGI,"[1]; after 28 days of administration, Day 0-Day 10: 1 mg/kg, Day 11-Day 28: 0.1 mg/kg, once a day",121%
same,tumor growth after drug withdrawal,[1]; drug withdrawal observation period 14 days,did not grow again
